{
  "source": "ChEMBL document CHEMBL1133403",
  "about": "(Bioorg Med Chem Lett, 2000)",
  "key": {"[1]": {"molecular_target": "T1, Glucocorticoid receptor (Homo sapiens) (UniProt P04150)", "T1 sequence (whole entry)": "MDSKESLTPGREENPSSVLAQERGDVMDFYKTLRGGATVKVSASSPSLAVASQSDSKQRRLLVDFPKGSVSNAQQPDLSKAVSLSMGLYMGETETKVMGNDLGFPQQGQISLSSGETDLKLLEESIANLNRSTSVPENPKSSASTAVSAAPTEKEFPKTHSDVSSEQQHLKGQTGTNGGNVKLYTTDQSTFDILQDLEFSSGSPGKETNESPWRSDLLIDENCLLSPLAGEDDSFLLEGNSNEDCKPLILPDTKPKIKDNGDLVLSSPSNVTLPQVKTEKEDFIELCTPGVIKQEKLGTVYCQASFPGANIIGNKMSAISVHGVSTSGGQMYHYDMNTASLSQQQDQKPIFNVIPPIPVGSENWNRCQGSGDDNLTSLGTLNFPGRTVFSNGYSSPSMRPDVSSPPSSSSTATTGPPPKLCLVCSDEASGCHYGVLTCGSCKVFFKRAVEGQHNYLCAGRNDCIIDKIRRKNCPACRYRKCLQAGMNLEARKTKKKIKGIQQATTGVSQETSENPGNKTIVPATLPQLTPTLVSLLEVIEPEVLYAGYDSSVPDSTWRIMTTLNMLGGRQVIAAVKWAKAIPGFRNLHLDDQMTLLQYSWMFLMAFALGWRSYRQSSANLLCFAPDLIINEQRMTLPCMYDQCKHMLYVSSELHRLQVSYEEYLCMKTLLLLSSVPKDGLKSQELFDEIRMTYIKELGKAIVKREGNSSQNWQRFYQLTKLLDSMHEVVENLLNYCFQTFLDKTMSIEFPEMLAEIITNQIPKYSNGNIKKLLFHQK", "experiment": "Percent inhibition of glucocorticoid receptor transcriptional activity at Dexamethasone EC50; NA=not active", "type": "functional"}, "Glucocorticoid receptor": {"molecular_target": "T2, Glucocorticoid receptor (Homo sapiens, UniProt P04150)", "T2 sequence (P04150 whole entry)": "T1 sequence (whole entry)", "experiment": "Cross-reactivity as binding to human glucocorticoid receptor (hGR); NA=not active", "type": "functional"}, "[2]": {"molecular_target": "T3, Mineralocorticoid receptor (Homo sapiens) (UniProt P08235)", "T3 sequence (whole entry)": "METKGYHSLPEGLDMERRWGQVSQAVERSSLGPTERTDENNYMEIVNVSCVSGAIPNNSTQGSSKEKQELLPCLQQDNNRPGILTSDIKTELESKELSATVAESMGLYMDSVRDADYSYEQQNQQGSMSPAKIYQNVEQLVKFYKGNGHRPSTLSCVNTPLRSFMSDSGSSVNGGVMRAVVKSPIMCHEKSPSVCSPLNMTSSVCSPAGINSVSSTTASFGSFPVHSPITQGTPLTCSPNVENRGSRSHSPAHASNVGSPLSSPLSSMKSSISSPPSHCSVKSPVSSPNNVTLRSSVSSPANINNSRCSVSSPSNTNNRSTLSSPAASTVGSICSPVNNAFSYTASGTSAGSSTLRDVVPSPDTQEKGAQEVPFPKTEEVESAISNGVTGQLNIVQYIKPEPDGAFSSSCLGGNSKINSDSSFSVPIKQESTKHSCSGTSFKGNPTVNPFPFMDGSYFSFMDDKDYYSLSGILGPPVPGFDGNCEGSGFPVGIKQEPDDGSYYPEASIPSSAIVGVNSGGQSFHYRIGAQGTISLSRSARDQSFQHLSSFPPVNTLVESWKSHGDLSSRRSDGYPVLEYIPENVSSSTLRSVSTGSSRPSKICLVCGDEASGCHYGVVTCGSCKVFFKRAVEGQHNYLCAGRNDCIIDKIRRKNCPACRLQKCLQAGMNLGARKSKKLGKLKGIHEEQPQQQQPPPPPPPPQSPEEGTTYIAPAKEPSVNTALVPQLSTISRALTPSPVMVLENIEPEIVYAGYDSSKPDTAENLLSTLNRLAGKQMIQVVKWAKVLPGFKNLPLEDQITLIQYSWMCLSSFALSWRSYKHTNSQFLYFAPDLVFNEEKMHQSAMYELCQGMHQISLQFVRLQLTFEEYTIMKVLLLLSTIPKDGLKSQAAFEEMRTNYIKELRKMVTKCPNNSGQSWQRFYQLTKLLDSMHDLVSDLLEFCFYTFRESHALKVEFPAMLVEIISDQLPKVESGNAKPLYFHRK", "experiment": "Percent inhibition of mineralocorticoid receptor transcriptional activity at aldosterone EC50; NA=not active", "type": "functional"}, "Progesterone receptor [3]": {"molecular_target": "T4, Progesterone receptor (Homo sapiens, UniProt P06401)", "T4 sequence (P06401 whole entry)": "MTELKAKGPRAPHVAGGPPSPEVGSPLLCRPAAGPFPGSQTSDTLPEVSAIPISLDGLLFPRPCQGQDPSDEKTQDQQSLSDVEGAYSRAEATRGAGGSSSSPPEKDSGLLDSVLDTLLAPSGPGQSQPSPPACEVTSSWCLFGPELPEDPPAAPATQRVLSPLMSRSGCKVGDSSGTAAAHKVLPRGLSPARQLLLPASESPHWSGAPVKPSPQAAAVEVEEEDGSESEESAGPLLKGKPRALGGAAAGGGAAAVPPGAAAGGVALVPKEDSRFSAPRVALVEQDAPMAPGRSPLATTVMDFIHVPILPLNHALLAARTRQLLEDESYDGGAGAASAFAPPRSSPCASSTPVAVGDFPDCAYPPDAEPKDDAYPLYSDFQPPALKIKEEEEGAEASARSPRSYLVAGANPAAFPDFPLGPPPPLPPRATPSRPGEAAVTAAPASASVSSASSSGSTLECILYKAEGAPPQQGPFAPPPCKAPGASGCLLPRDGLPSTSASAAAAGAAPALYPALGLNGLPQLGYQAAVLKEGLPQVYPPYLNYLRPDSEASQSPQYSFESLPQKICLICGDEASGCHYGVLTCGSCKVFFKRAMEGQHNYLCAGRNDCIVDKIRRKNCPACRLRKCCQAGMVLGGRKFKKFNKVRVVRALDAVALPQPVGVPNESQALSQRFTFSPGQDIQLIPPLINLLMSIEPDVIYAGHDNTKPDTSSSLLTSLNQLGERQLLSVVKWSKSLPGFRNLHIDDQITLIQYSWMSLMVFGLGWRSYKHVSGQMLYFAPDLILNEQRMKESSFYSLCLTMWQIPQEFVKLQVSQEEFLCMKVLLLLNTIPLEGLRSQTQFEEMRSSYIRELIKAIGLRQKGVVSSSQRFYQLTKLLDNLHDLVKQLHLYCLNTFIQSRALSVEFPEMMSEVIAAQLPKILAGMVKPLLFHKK", "experiment": "Human progesterone receptor (hPR) agonist activity using cotransfection assay in CV-1 cells.", "type": "functional, cell-based"}, "Progesterone receptor [4]": {"molecular_target": "T4, Progesterone receptor", "experiment": "Antagonist activity against human progesterone receptor (hPR) in T47D human breast cancer cell line", "type": "functional, cell-based"}, "Progesterone receptor [5]": {"molecular_target": "T4, Progesterone receptor", "experiment": "Antagonist activity against human progesterone receptor (hPR) using cotransfection assay in CV-1 cells", "type": "functional, cell-based"}},
  "note": "Active and inactive are the calls of the source. The rule behind the calls is not given here.",
  "data": [
    {"smiles": "CC1=CC(C)(C)Nc2ccc(-c3ccc([N+](=O)[O-])s3)cc21", "values": [
      {"measurement": "Efficacy", "setting": "[1]", "value": "inactive"},
      {"measurement": "IC50", "setting": "Glucocorticoid receptor", "value": "Not Active"},
      {"measurement": "Efficacy", "setting": "[2]", "value": "inactive"},
      {"measurement": "EC50", "setting": "Progesterone receptor [3]", "value": "Not Active"},
      {"measurement": "IC50", "setting": "Progesterone receptor [4]", "value": 70, "unit": "nM"},
      {"measurement": "IC50", "setting": "Progesterone receptor [5]", "value": 31, "unit": "nM"}
    ]}
  ]
}
